Results reported in US9006450B2 (Boehringer Ingelheim International GmbH, priority 2010, dated 2015).

biological target: T1, human ACC2 (Homo sapiens, UniProt O00763); assay: ACC2 assay, spectrophotometric 384 well assay (NADH-linked, coupled lactate dehydrogenase/pyruvate kinase); format: biochemical; conditions: ACC2 assay, hACC2 construct lacking 128 N-terminal amino acids, 25° C., 340 nm; read-out: IC50
T1 construct: made in house; host or cells: insect cells (baculoviral expression system)
Outline: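 Human ACC2 lacking N-terminal 128 aa, baculovirus/insect-cell expressed, anion-exchange purified; 100 mM Tris pH 7.5, 10 mM citrate, 25 mM KHCO3, 1% DMSO. Started with 200 μM NADH and acetyl-CoA plus 500 μM ATP; PK/LDH-coupled A340 decrease read 15 min at 25° C. IC50 by nonlinear fit of low-control-subtracted slopes.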

T1 sequence (O00763 129-2458 limits assumed): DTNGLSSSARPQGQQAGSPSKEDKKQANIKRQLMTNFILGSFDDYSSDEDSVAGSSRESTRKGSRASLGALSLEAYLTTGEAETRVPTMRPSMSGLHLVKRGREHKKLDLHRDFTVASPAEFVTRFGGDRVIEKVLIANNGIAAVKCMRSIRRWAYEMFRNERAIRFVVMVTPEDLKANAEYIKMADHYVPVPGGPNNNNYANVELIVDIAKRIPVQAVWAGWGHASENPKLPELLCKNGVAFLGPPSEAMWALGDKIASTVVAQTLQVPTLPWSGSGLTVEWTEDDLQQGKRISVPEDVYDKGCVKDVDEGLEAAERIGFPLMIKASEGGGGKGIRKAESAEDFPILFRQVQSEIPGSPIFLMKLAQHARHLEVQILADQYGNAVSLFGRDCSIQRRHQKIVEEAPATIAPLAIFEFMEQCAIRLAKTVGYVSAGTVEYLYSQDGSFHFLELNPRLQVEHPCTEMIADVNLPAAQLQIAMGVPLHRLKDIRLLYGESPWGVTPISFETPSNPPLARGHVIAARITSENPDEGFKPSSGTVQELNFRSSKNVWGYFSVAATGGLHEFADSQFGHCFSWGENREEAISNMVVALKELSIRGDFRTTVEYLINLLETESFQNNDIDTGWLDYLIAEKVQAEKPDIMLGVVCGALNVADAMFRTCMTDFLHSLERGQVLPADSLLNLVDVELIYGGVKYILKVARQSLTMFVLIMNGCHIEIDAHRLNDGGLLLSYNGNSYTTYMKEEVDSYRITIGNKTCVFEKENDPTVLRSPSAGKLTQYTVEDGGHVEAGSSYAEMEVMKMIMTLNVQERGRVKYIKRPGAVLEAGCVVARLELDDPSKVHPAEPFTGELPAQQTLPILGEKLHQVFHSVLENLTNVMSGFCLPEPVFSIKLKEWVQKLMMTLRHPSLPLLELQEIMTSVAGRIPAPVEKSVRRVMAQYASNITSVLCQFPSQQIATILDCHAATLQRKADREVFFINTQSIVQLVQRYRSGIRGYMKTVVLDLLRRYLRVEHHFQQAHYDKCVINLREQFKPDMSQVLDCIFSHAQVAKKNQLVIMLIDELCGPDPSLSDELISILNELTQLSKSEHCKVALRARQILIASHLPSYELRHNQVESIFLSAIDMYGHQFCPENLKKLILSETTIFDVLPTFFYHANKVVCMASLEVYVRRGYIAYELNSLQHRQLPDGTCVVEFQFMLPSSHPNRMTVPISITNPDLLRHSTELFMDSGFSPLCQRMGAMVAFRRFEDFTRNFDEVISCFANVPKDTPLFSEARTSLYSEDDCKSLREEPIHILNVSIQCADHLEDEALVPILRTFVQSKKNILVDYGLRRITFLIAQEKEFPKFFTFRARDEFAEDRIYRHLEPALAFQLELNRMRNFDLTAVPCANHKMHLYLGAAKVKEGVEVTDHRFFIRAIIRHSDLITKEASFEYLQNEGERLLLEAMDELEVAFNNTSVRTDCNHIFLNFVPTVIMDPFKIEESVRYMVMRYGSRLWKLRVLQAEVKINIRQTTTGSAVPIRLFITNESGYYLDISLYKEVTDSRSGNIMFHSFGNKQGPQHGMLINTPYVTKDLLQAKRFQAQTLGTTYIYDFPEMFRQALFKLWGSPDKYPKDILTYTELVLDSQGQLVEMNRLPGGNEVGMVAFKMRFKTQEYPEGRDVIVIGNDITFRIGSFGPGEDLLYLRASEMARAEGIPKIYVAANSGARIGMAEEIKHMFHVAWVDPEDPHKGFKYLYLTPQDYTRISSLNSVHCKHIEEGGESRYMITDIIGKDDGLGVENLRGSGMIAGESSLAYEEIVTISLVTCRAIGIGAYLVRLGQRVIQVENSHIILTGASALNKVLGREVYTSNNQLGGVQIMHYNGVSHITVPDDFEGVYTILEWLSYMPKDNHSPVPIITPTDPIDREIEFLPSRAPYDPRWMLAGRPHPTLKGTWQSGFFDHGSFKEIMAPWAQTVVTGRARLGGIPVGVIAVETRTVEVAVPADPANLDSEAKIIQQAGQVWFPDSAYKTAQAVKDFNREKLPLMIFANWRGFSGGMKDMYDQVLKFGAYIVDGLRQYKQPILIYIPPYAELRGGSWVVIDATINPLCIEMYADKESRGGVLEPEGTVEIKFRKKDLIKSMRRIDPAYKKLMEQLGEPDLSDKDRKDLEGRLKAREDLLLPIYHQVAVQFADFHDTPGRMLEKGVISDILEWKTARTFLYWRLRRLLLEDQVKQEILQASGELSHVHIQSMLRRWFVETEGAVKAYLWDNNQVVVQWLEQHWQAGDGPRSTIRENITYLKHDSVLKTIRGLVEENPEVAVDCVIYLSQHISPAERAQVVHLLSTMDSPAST

Structure (SMILES)	IC50 [nM]
CCCCOc1cc(N2CCC(c3ccc([C@H](C)NC(C)=O)cc3)CC2)ccn1 [Example 3.4]	110
CC(=O)N[C@@H](C)c1ccc(C2CCN(c3ccnc(Oc4cncnc4)c3)CC2)cc1 [Example 3.5]	590
CC(=O)N[C@@H](C)c1ccc(C2CCN(c3ccc(OCC(C)C)cc3)CC2)cc1 [Example 3.7]	740
CCCOc1ccc(N2CCC(c3ccc([C@H](C)NC(C)=O)cc3)CC2)cc1 [Example 3.8]	340
CCCn1ccc(N2CCC(c3ccc([C@H](C)NC(C)=O)cc3)CC2)cc1=O [Example 3.9]	13300
CC(=O)N[C@@H](C)c1ccc(C2CCN(c3ccc(Oc4ccccc4)nn3)CC2)cc1 [Example 3.10]	1600
CCOc1ccc(N2CCC(c3ccc([C@H](C)NC(C)=O)cc3)CC2)nn1 [Example 3.11]	3000
CC(=O)N[C@@H](C)c1ccc(C2CCN(c3ccnc(Oc4ccccc4)c3)CC2)cc1 [Example 3.12]	60
CCCCOc1ccc(N2CCC(c3ccc([C@H](C)NC(C)=O)cc3)CC2)nn1 [Example 3.13]	470
C[C@H](NC(=O)C1CC1)c1ccc(C2CCN(c3ccnc(Oc4ccccc4)c3)CC2)cc1 [Example 3.14]	420
CCOc1ccc(N2CCC(c3ccc(C4(NC(C)=O)CC4)cc3)CC2)cc1 [Example 3.20]	7400
CC(=O)N[C@@H](C)c1ccc(C2CCN(c3ncccc3C#N)CC2)cc1 [Example 4.1, (S)—N-(1-{4-[1-(3-Cyanopyridin-2-yl)piperidin-4-yl]phenyl}ethyl)acetamide]	2500
CC(=O)N[C@@H](C)c1ccc(C2CCN(c3nc4ccccc4s3)CC2)cc1 [Example 4.2]	1300
CC(=O)N[C@@H](C)c1ccc(C2CCN(c3ccc4ccccc4n3)CC2)cc1 [Example 4.3]	450
CC(=O)N[C@@H](C)c1ccc(C2CCN(c3cc(C)c4ccccc4n3)CC2)cc1 [Example 4.4]	1800
CC(=O)N[C@@H](C)c1ccc(C2CCN(c3ccc(C#N)cn3)CC2)cc1 [Example 4.5]	2600
CC(=O)N[C@@H](C)c1ccc(C2CCN(c3cc(C(F)(F)F)ncn3)CC2)cc1 [Example 4.6]	1600
CC(=O)N[C@@H](C)c1ccc(C2CCN(c3ncnc4ccccc34)CC2)cc1 [Example 4.7]	950
CC(=O)N[C@@H](C)c1ccc(C2CCN(c3nc(Cl)cc4ccccc34)CC2)cc1 [Example 4.8]	970

Structure (SMILES)	IC50 [nM]
CC(=O)N[C@@H](C)c1ccc(C2CCN(c3nc4ccccc4o3)CC2)cc1 [Example 4.9]	1900
CC(=O)N[C@@H](C)c1ccc(C2CCN(c3ccc4cc(Cl)ccc4n3)CC2)cc1 [Example 4.10]	670
CC(=O)N[C@@H](C)c1ccc(C2CCN(c3nccc(C(F)(F)F)n3)CC2)cc1 [Example 4.11]	850
CC(=O)N[C@@H](C)c1ccc(C2CCN(c3nc4ccccc4n3C)CC2)cc1 [Example 4.12]	11600
CC(=O)N[C@@H](C)c1ccc(C2CCN(c3ccc(C(C)C)cn3)CC2)cc1 [Example 4.13]	3200
CC(=O)N[C@@H](C)c1ccc(C2CCN(c3ccc4nnn(C)c4n3)CC2)cc1 [Example 4.14]	2400
CC(=O)N[C@@H](C)c1ccc(C2CCN(c3ccc(-c4ccccc4)cn3)CC2)cc1 [Example 4.15]	220
COc1ccnc(N2CCC(c3ccc([C@H](C)NC(C)=O)cc3)CC2)c1 [Example 4.16]	1100
CC(=O)N[C@@H](C)c1ccc(C2CCN(c3ccc(C(F)(F)F)cn3)CC2)cc1 [Example 4.17]	440
CC(=O)N[C@@H](C)c1ccc(C2CCN(c3cc(C(F)(F)F)ccn3)CC2)cc1 [Example 4.18]	320
CC(=O)N[C@@H](C)c1ccc(C2CCN(c3cccc(C(F)(F)F)n3)CC2)cc1 [Example 4.19]	100
CC(=O)N[C@@H](C)c1ccc(C2CCN(c3ncc4c(C)n[nH]c4n3)CC2)cc1 [Example 4.20]	1300
CC(=O)N[C@@H](C)c1ccc(C2CCN(c3nccc(-c4ccccc4)n3)CC2)cc1 [Example 4.21]	520
CC(=O)N[C@@H](C)c1ccc(C2CCN(c3cc(-c4ccccc4)ncn3)CC2)cc1 [Example 4.22]	1100
CC(=O)N[C@@H](C)c1ccc(C2CCN(c3nc(C)c4ccccc4n3)CC2)cc1 [Example 4.23]	720
CC(=O)N[C@@H](C)c1ccc(C2CCN(c3ncnc4ccsc34)CC2)cc1 [Example 4.24]	2100
CC(=O)N[C@@H](C)c1ccc(C2CCN(c3ccnc(C(C)C)n3)CC2)cc1 [Example 4.25]	230
CC(=O)N[C@@H](C)c1ccc(C2CCN(c3ccnc(C(F)(F)F)n3)CC2)cc1 [Example 4.26]	290
CCOc1cccc(N2CCC(c3ccc([C@H](C)NC(C)=O)cc3)CC2)n1 [Example 4.27]	330

Structure (SMILES)	IC50 [nM]
CC(=O)N[C@@H](C)c1ccc(C2CCN(c3ncc4nc(-c5ccccc5)oc4n3)CC2)cc1 [Example 4.28]	60
CC(=O)N[C@@H](C)c1ccc(C2CCN(c3ncc(Cl)cn3)CC2)cc1 [Example 4.29]	1700
CC(=O)N[C@@H](C)c1ccc(C2CCN(c3noc4ccccc34)CC2)cc1 [Example 4.30]	1100
COc1cc2ccnc(N3CCC(c4ccc([C@H](C)NC(C)=O)cc4)CC3)c2cc1OC [Example 4.31]	2000
CC(=O)N[C@@H](C)c1ccc(C2CCN(c3nc4ccccc4nc3C)CC2)cc1 [Example 4.32]	2300
COc1cnc(N2CCC(c3ccc([C@H](C)NC(C)=O)cc3)CC2)nc1 [Example 4.33]	510
CC(=O)Nc1cnc(N2CCC(c3ccc([C@H](C)NC(C)=O)cc3)CC2)nc1 [Example 4.34]	9500
CCCc1cnc(N2CCC(c3ccc([C@H](C)NC(C)=O)cc3)CC2)nc1 [Example 4.35]	510
COC(=O)c1cnc(N2CCC(c3ccc([C@H](C)NC(C)=O)cc3)CC2)nc1 [Example 4.36]	1200
CC(=O)N[C@@H](C)c1ccc(C2CCN(c3ncc(-c4ccc(Cl)cc4)cn3)CC2)cc1 [Example 4.37]	300
CC(=O)N[C@@H](C)c1ccc(C2CCN(c3ncc(C(C)(C)C)cn3)CC2)cc1 [Example 4.38]	440
CC(=O)N[C@@H](C)c1ccc(C2CCN(c3ncc([N+](=O)[O-])cn3)CC2)cc1 [Example 4.39]	1900
CC(=O)N[C@@H](C)c1ccc(C2CCN(c3ncc(F)cn3)CC2)cc1 [Example 4.40]	930
COc1ccc(-c2cnc(N3CCC(c4ccc([C@H](C)NC(C)=O)cc4)CC3)nc2)cc1 [Example 4.41]	100
CCc1cnc(N2CCC(c3ccc([C@H](C)NC(C)=O)cc3)CC2)nc1 [Example 4.42]	530
CC(=O)N[C@@H](C)c1ccc(C2CCN(c3ncc(I)cn3)CC2)cc1 [Example 4.43, (S)—N-(1-{4-[1-(5-iodopyrimidin-2-yl)-piperidin-4-yl]-phenyl}-ethyl)-acetamide]	410
CC(=O)N[C@@H](C)c1ccc(C2CCN(c3ncc(Br)cn3)CC2)cc1 [Example 4.44]	650
CC(=O)N[C@@H](C)c1ccc(C2CCN(c3ncccn3)CC2)cc1 [Example 4.45]	1500
C[C@H](NC(=O)C1CC1)c1ccc(C2CCN(c3ncc4nc(-c5ccccc5)oc4n3)CC2)cc1 [Example 4.46]	210
